# Assay results from patent US9120770B2, “Substituted pyridine and pyrazine compounds as PDE4 inhibitors” (DART NEUROSCIENCE (CAYMAN) LTD., priority 2013, dated 2015).
# Target: PDE4D3 (Homo sapiens, UniProt Q08499)
# Sequence (Q08499 1-673 isoform Q08499-2): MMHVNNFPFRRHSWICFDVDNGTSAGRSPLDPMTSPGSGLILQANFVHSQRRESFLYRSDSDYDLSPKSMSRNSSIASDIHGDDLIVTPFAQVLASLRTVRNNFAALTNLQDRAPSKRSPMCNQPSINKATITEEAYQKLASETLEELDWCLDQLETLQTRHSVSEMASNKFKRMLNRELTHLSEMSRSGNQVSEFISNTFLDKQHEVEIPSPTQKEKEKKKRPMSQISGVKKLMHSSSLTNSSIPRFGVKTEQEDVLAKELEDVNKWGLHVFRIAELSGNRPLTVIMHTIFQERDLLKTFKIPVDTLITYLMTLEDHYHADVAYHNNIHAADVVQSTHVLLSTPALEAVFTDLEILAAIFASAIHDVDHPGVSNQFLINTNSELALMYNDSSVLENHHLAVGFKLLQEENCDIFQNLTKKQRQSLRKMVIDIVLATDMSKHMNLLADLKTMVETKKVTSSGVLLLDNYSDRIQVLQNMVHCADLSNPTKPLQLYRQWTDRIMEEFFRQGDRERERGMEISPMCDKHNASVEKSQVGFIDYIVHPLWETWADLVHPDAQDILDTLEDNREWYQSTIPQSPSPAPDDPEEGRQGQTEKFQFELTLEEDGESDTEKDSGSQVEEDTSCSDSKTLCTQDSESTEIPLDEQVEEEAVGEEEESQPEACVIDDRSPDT
smiles,measurement,value
"FC(F)Oc1ncc(Cn2cncn2)cc1-c1cccc(Cl)c1 [Example 131, 3-(3-Chlorophenyl)-2-(difluoromethoxy)-5-(1H-1,2,4-triazol-1-ylmethyl)pyridine]",EC50,< 0.1 µM
"COc1ncc(Cn2cnc(CO)n2)nc1-c1cccc(Cl)c1 [Example 199, (1-{[6-(3-Chlorophenyl)-5-methoxypyrazin-2-yl]methyl}-1H-1,2,4-triazol-3-yl)methanol]",EC50,1 to 10 µM
"COc1cccc(-c2cc(Cc3cnc(C(N)=O)nc3)cnc2OC(F)F)c1 [Example 115, 5-{[6-(Difluoromethoxy)-5-(3-methoxyphenyl)pyridin-3-yl]methyl}pyrimidine-2-carboxamide]",EC50,0.1 to 1 µM
"COc1ncc(Cc2ccc(C(N)=O)nc2)nc1-c1cccc(Cl)c1 [Example 90, 5-{[6-(3-Chlorophenyl)-5-methoxypyrazin-2-yl]methyl}pyridine-2-carboxamide]",EC50,0.1 to 1 µM
"COc1ncc(Cn2cc(C)cn2)cc1-c1cccc(Cl)c1 [Example 179, 3-(3-Chlorophenyl)-2-methoxy-5-[(4-methyl-1H-pyrazol-1-yl)methyl]pyridine]",EC50,0.1 to 1 µM
"CCOc1ncc(Cn2ncc(Cl)c2N)cc1-c1cccc(Cl)c1 [Example 235, 4-Chloro-1-{[5-(3-chlorophenyl)-6-ethoxypyridin-3-yl]methyl}-1H-pyrazol-5-amine]",EC50,1 to 10 µM
"COc1ccc(Cc2cnc(OC)c(-c3cccc(Cl)c3)c2)cn1 [Example 32, 3-(3-Chlorophenyl)-2-methoxy-5-[(6-methoxypyridin-3-yl)methyl]pyridine]",EC50,< 0.1 µM
"O=C(O)c1ccc(Cc2cnc(OC(F)F)c(-c3cccc(Cl)c3)c2)cc1 [Example 280, 4-{[5-(3-Chlorophenyl)-6-(difluoromethoxy)pyridin-3-yl]methyl}benzoic acid]",EC50,1 to 10 µM
"COc1ncc(Cn2cc(C)cn2)nc1-c1cccc(Cl)c1 [Example 184, 3-(3-Chlorophenyl)-2-methoxy-5-[(4-methyl-1H-pyrazol-1-yl)methyl]pyrazine]",EC50,1 to 10 µM
"COc1ncc(Cc2ccncc2)cc1-c1cccc(Cl)c1 [Example 53, 3-(3-Chlorophenyl)-2-methoxy-5-(pyridin-4-ylmethyl)pyridine]",EC50,0.1 to 1 µM
"COc1ncc(Cn2cccn2)nc1-c1cccc(Cl)c1 [Example 182, 3-(3-Chlorophenyl)-2-methoxy-5-(1H-pyrazol-1-ylmethyl)pyrazine]",EC50,1 to 10 µM
"COc1cccc(-c2cc(Cc3cnc(N)nc3)cnc2OC(F)F)c1 [Example 29, 5-{[6-(Difluoromethoxy)-5-(3-methoxyphenyl)pyridin-3-yl]methyl}pyrimidin-2-amine]",EC50,< 0.1 µM
"COc1ncc(Cc2c(C)noc2C)nc1-c1cccc(Cl)c1 [Example 98, 3-(3-Chlorophenyl)-5-[(dimethyl-1,2-oxazol-4-yl)methyl]-2-methoxypyrazine]",EC50,1 to 10 µM
"COc1ncc(C(c2ccc(F)cc2)N(C)C)cc1-c1cccc(Cl)c1 (centres unmarked) [Example 19, {[5-(3-Chlorophenyl)-6-methoxypyridin-3-yl](4-fluorophenyl)methyl}dimethylamine]",EC50,1 to 10 µM
"COc1ncc(Cc2cnc(NCC(F)(F)F)nc2)cc1-c1cccc(Cl)c1 [Example 84, 5-{[5-(3-Chlorophenyl)-6-methoxypyridin-3-yl]methyl}-N-(2,2,2-trifluoroethyl)pyrimidin-2-amine]",EC50,< 0.1 µM
"COc1ncc(Cn2cncn2)cc1-c1cc(C)ccn1 [Example 10, 2-Methoxy-3-(4-methylpyridin-2-yl)-5-(1H-1,2,4-triazol-1-ylmethyl)pyridine]",EC50,> 10 µM
"NCc1cncc(Cc2cnc(OC(F)F)c(-c3cccc(Cl)c3)c2)c1 [Example 71, (5-{[5-(3-Chlorophenyl)-6-(difluoromethoxy)pyridin-3-yl]methyl}pyridin-3-yl)methanamine]",EC50,< 0.1 µM
"COc1ncc(Cn2ccnn2)cc1-c1cccc(Cl)c1 [Example 262, 3-(3-Chlorophenyl)-2-methoxy-5-(1H-1,2,3-triazol-1-ylmethyl)pyridine]",EC50,< 0.1 µM
"COc1ncc(Cn2cnc(C(F)(F)F)c2)cc1-c1cccc(Cl)c1 [Example 149, 3-(3-Chlorophenyl)-2-methoxy-5-{[4-(trifluoromethyl)-1H-imidazol-1-yl]methyl}pyridine]",EC50,1 to 10 µM
"COC(=O)c1ncn(Cc2cnc(OC)c(-c3cccc(Cl)c3)c2)n1 [Example 141, Methyl 1-{[5-(3-chlorophenyl)-6-methoxypyridin-3-yl]methyl}-1H-1,2,4-triazole-3-carboxylate]",EC50,0.1 to 1 µM
"FC(F)Oc1ncc(Cn2cnc(C(F)F)n2)cc1-c1cccc(Cl)c1 [Example 259, 3-(3-Chlorophenyl)-2-(difluoromethoxy)-5-{[3-(difluoromethyl)-1H-1,2,4-triazol-1-yl]methyl}pyridine]",EC50,0.1 to 1 µM
"CCOc1ncc(Cn2cc(Cl)c(CO)n2)cc1-c1cccc(Cl)c1 [Example 277, (4-Chloro-1-{[5-(3-chlorophenyl)-6-ethoxypyridin-3-yl]methyl}-1H-pyrazol-3-yl)methanol]",EC50,0.1 to 1 µM
"Cc1nc(C)c(Cc2cnc(OC(F)F)c(-c3cccc(Cl)c3)c2)s1 [Example 69, 3-(3-Chlorophenyl)-2-(difluoromethoxy)-5-[(dimethyl-1,3-thiazol-5-yl)methyl]pyridine]",EC50,< 0.1 µM
"CCOc1ncc(Cc2cnc(C(N)=O)nc2)cc1-c1cccc(OC(F)F)c1 [Example 119, 5-({5-[3-(Difluoromethoxy)phenyl]-6-ethoxypyridin-3-yl}methyl)pyrimidine-2-carboxamide]",EC50,< 0.1 µM
"COc1cc(-c2cc(Cc3cnc(N)nc3)cnc2OC(F)F)ccn1 [Example 46, 5-{[6-(Difluoromethoxy)-5-(2-methoxypyridin-4-yl)pyridin-3-yl]methyl}pyrimidin-2-amine]",EC50,< 0.1 µM
"CNc1ncc(Cc2cnc(OC)c(-c3cccc(Cl)c3)c2)cn1 [Example 81, 5-{[5-(3-Chlorophenyl)-6-methoxypyridin-3-yl]methyl}-N-methylpyrimidin-2-amine]",EC50,0.1 to 1 µM
"COc1ncc(Cn2cc(Cl)cn2)cc1-c1cccc(OC(F)F)c1 [Example 167, 5-[(4-Chloro-1H-pyrazol-1-yl)methyl]-3-[3-(difluoromethoxy)phenyl]-2-methoxypyridine]",EC50,0.1 to 1 µM
"CCOc1ncc(Cn2ncnc2CO)nc1-c1cccc(OC(F)F)c1 [Example 209, [1-({6-[3-(Difluoromethoxy)phenyl]-5-ethoxypyrazin-2-yl}methyl)-1H-1,2,4-triazol-5-yl]methanol]",EC50,1 to 10 µM
"COc1ncc(Cc2cnc(C(N)=O)nc2)cc1-c1cccc(F)c1 [Example 118, 5-{[5-(3-Fluorophenyl)-6-methoxypyridin-3-yl]methyl}pyrimidine-2-carboxamide]",EC50,0.1 to 1 µM
"Nc1ncc(Cc2cnc(OC(F)F)c(-c3cccc(OC4COC4)c3)c2)cn1 [Example 43, 5-{[6-(Difluoromethoxy)-5-[3-(oxetan-3-yloxy)phenyl]pyridin-3-yl]methyl}pyrimidin-2-amine]",EC50,0.1 to 1 µM
"CCOc1ncc(Cn2ncc(Cl)c2CO)cc1-c1cccc(Cl)c1 [Example 278, (4-Chloro-1-{[5-(3-chlorophenyl)-6-ethoxypyridin-3-yl]methyl}-1H-pyrazol-5-yl)methanol]",EC50,0.1 to 1 µM
"COc1ncc(Cc2cnc(N)nc2)cc1-c1cccc(F)c1 [Example 38, 5-{[5-(3-Fluorophenyl)-6-methoxypyridin-3-yl]methyl}pyrimidin-2-amine]",EC50,< 0.1 µM
"CCOc1ncc(Cc2cnc(C(N)=O)nc2)nc1-c1cccc(Cl)c1 [Example 126, 5-{[6-(3-Chlorophenyl)-5-ethoxypyrazin-2-yl]methyl}pyrimidine-2-carboxamide]",EC50,< 0.1 µM
"COc1ncc(Cn2cnc(N)n2)cc1-c1cccc(F)c1 [Example 220, 1-{[5-(3-Fluorophenyl)-6-methoxypyridin-3-yl]methyl}-1H-1,2,4-triazol-3-amine]",EC50,0.1 to 1 µM
"COc1ncn(Cc2cnc(OC(F)F)c(-c3cccc(Cl)c3)c2)n1 [Example 214, 3-(3-Chlorophenyl)-2-(difluoromethoxy)-5-[(3-methoxy-1H-1,2,4-triazol-1-yl)methyl]pyridine]",EC50,0.1 to 1 µM
"CCOc1ncc(Cc2cnc(C#N)nc2)nc1-c1cccc(OC(F)F)c1 [Example 1, 5-({6-[3-(Difluoromethoxy)phenyl]-5-ethoxypyrazin-2-yl}methyl)pyrimidine-2-carbonitrile]",EC50,< 0.1 µM
"COc1ncc(Cn2cnc(C(N)=O)n2)cc1-c1cccc(Cl)c1 [Example 241, 1-{[5-(3-Chlorophenyl)-6-methoxypyridin-3-yl]methyl}-1H-1,2,4-triazole-3-carboxamide]",EC50,1 to 10 µM
"COc1ncc(Cc2cnc(NC(C)=O)nc2)cc1-c1cccc(Cl)c1 [Example 44, N-(5-[{5-(3-Chlorophenyl)-6-methoxypyridin-3-yl]methyl}pyrimidin-2-yl)acetamide]",EC50,0.1 to 1 µM
"COc1ncc(Cn2cncn2)cc1-c1cccc(CO)c1 [Example 8, {3-[2-Methoxy-5-(1H-1,2,4-triazol-1-ylmethyl)pyridin-3-yl]phenyl}methanol]",EC50,1 to 10 µM
"COc1ncc(Cn2cnc(N)n2)cc1-c1cccc(OC2CC2)c1 [Example 225, 1-{[5-(3-Cyclopropoxyphenyl)-6-methoxypyridin-3-yl]methyl}-1H-1,2,4-triazol-3-amine]",EC50,1 to 10 µM
"COC(=O)c1ncnn1Cc1cnc(OC)c(-c2cccc(Cl)c2)c1 [Example 140, Methyl 1-{[5-(3-chlorophenyl)-6-methoxypyridin-3-yl]methyl}-1H-1,2,4-triazole-5-carboxylate]",EC50,> 10 µM
"COc1ncc(Cc2ccccc2CO)cc1-c1cccc(Cl)c1 [Example 37, (2-{[5-(3-Chlorophenyl)-6-methoxypyridin-3-yl]methyl}phenyl)methanol]",EC50,0.1 to 1 µM
"CCOc1ncc(Cn2cnc([N+](=O)[O-])n2)nc1-c1cccc(OC(F)F)c1 [Example 193, 3-(3-(Difluoromethoxy)phenyl)-2-ethoxy-5-((3-nitro-1H-1,2,4-triazol-1-yl)methyl)pyrazine]",EC50,1 to 10 µM
"COc1ncc(Cc2cnc(OC)c(-c3cccc(Cl)c3)c2)cc1C [Example 67, 3-(3-Chlorophenyl)-2-methoxy-5-[(6-methoxy-5-methylpyridin-3-yl)methyl]pyridine]",EC50,0.1 to 1 µM
